# According to US8241607B2, “Use of fructose-based compounds for the diagnosis of cancer” (priority 2005, dated 2012):
# Experiments:
# MCF-7 cells = assay: Breast cancer cell proliferation in fructose versus glucose (MTT assay); format: cell-based; details: 5 mM fructose compared to 5 mM glucose, 8-72 h
# Protocol: (§1) Estrogen receptor (ER) positive MCF-7, and ER negative MDA-MB231 cells were plated in 5 mM fructose or glucose for times between 8-72 h, and proliferative rates measured using MTT assay. *, p<0.05; **, p<0.01.
# (§2) FIG. 5 depicts fructose-mediated increased breast cancer proliferation in accordance with an embodiment of the present invention. ER positive MCF-7, and ER negative MDA-MB231 cells were plated in a range of fructose or glucose concentrations (5-25 mM) for 72 h, after which proliferative rates were measured using an MTT assay. *, p<0.05 for concentrations between 5-25 mM fructose versus glucose.
# (§3) Standard media for breast cancer cell culture contain either 5-7 mM (low) and 12-25 mM (high) glucose concentrations. Estrogen receptor (ER) positive MCF-7, and ER negative MDA-MB231 cells were cultured overnight in 2 mM glucose standard DMEM medium containing 10% fetal bovine serum prior to incubation for periods between 8, and 72 hours in standard DMEM medium containing 10% fetal bovine serum, and 5 mM glucose or 5 mM fructose.
# (§4) Proliferative rates were then measured in replicate (minimum of 6) aliquot wells of the breast cancer cells grown in glucose, or fructose containing medium. […] In separate experiments, proliferative rates of the MCF-7, and MDA-MB231 breast cancer cells were compared following culture in a range of fructose, and glucose concentrations (2-25 mM) for 72 hours.
# MDA-MB231 cells = assay: as above; format: cell-based; details: 5 mM fructose compared to 5 mM glucose, 8-72 h
# Protocol: as §1, §2, §3, §4
# GLUT-5 mRNA = assay: Quantitative real-time RT-PCR of GLUT-5 mRNA in MCF-7 cells; format: cell-based
# Protocol: FIG. 10 depicts GLUT-5 expression levels in accordance with an embodiment of the present invention. MCF-7 breast cancer cells were incubated in 2 mM glucose (Glu), 5.5 mM glucose (Glu) or 5.5 mM fructose (Fru) for 4 or 24 hours, after which GLUT-5 expression was quantified using real-time RT-PCR, normalized to GAPDH levels, and expressed as fold-increase compared to GLUT-5 levels detected in MCF-7 cells cultured in 2 mM glucose for a similar time period.
# Cellular fructose uptake is facilitated by a member of solute carrier family 2, called glucose transporter type 5 (GLUT-5). Following incubation of MCF-7 breast cancer cells in 2 mM, 5.5 mM glucose or 5.5 mM fructose for […], total RNA was harvested, and analyzed by quantitative real-time RT-PCR analysis using GLUT-5 specific primers to quantify GLUT-5 mRNA expression. GLUT-5 expression was normalized to GAPGH mRNA expression, and expressed as fold-change in comparison to control breast cancer cells incubated in 2 mM glucose for 4, and 24 hours.
# MAPK pathway = assay: Western blot of MAPK pathway in breast cancer cells; format: cell-based
# Protocol: FIG. 11 depicts increased breast cancer phosphorylated-MEK, phosphorylated Rsk, and phosphorylated CREB in accordance with an embodiment of the present invention. MCF-7 breast cancer cells were incubated in 2 mM glucose, 5 mM glucose or 5 mM fructose for 24 hours, after which Western blot analysis on total protein lysates was employed to examine components of the MAP kinase pathway. […] Total MEK, Rsk, and CREB levels, and β-actin served as loading controls.
# Although several signal transduction pathways are likely involved in the fructose-mediated enhanced breast cancer growth and while not wishing to be bound by any particular theory, the inventors believe that the MAP-kinase pathway is involved. The inventors have used Western blot analysis to examine the MAPK pathway in breast cancer cells incubated in 2 mM glucose, 5.5 mM glucose, and 5.5 mM fructose for 48 hours. […] Activation of MEK, and subsequently ERK results in phosphorylation of p90^Rsk, which leads to transcriptional activation of CREB and AP1, which bind to cAMP or AP1 response elements respectively, activating gene transcription and promoting cellular growth.
# [1] = test system: primary pancreatic cancers; assay: BRDU uptake in primary cultures of surgically resected pancreatic cancers; format: cell-based, human; details: all 5 primary pancreatic cancers; 5.5 mM fructose compared to 5.5 mM glucose, 72 h
# Protocol: FIG. 18 depicts BRDU incorporation by pancreatic cells in accordance with an embodiment of the present invention. Freshly resected pancreatic cancers were mechanically and enzymatically dispersed, and cells were pre-incubated in 2 mM glucose prior to treatment with 5.5 mM glucose or fructose for 72 h. BRDU (10 μM) was added to the medium at 48 h, and BRDU-uptake quantified at 72 h.
# As immortalized cell-lines, such as PANC-1 pancreatic cancer cells, can become dedifferentiated after repeated passages, and in order to translate these findings in the PANC-1 cells to patients with pancreatic cancer, the inventors also examined proliferative rates in primary cultures of fresh surgically resected pancreatic cancers, following incubation in 2 mM, and 5.5 mM glucose or 5.5 mM fructose. Briefly, after mechanical and enzymatic (trypsin and DNAse) disaggregation, aliquots of tumor cells were seeded in 6-well plates, and incubated in standard DMEM media with 10% fetal bovine serum, and 2 mM glucose, 5.5 mM glucose, or 5.5 mM fructose for 72 h. As before in the PANC-1 experiments, BRDU (10 μM) was added in the […] of incubation in the sugars, following which BRDU-uptake was quantified.
# AP-1 = AP-1 probe binding assay on nuclear extracts of PANC-1 cells; format: cell-based; details: 5.5 mM fructose, 48 h
# Protocol: FIG. 24 depicts luciferase activity of PANC-1 cells and primary culture of surgically resected pancreatic tumor cells in accordance with an embodiment of the present invention. PANC-1 pancreatic cancer cells and a primary culture of a surgically resected pancreatic tumor were incubated in 2 mM glucose, 5.5 mM glucose or 5.5 mM fructose for 48 h, after which nuclear extracts were incubated with a biotinylated AP-1 probe, and detected by an antibody-linked colorimetric method. *, p<0.01
# In separate experiments PANC-1 cells, and primary cultures of surgically resected pancreatic tumors were incubated in 2 mM glucose, or 5.5 mM glucose or 5.5 mM fructose for 48 h, after which nuclear extracts were incubated with a biotinylated AP-1 probe in binding buffer. AP-1/AP1 probe complexes were next conjugated to a streptavidin-coated assay plate and detected using an AP-1 specific antibody, followed by binding of a horseradish-peroxidase conjugated secondary antibody, and detection by a colorimetric reagent.
# normal pancreas tissue = assay: Substrate oxidation with 13C tracers in primary culture of normal pancreas; format: cell-based, human; details: 5.5 mM, 72 h
# Protocol: FIG. 31 depicts substrate oxidation in accordance with an embodiment of the present invention. Substrate oxidation in a primary culture of a normal pancreas (left), and a pancreatic cancer (right) following incubation in 2 mM, or 5 mM glucose, or 5 mM fructose for 72 h.
# In separate studies, the inventors treated primary cultures of 4 pancreatic adenocarcinomas, and 3 normal pancreas tissues with the [1,2-^13C2]D-glucose-, or -fructose-tracers as before for 72 h, and carried out metabolic studies.
# [2] = breast cancer cells, 5.5 mM fructose, 24 h, vs 5.5 and 2 mM glucose
smiles,measurement,setting,value
O=C(CO)[C@@H](O)[C@H](O)[C@H](O)CO [fructose],proliferative rates,MCF-7 cells,higher proliferative rates
same,proliferative rates,MDA-MB231 cells,higher proliferative rates
same,increase in GLUT-5 expression,"GLUT-5 mRNA; 5.5 mM fructose compared to 5.5 mM glucose, 24 hour incubation",two-fold increase
same,change in GLUT-5 mRNA expression,"GLUT-5 mRNA; 5.5 mM glucose or 5 mM fructose, 4 hours, vs 2 mM glucose",no significant change
same,phospho-MEK (pMEK) expression,"MAPK pathway; MCF-7 and MDA-MB231, 5.5 mM fructose vs 5.5 and 2 mM glucose",increased expression
same,phospho-CREB (pCREB),MAPK pathway; [2],increased
same,phospho-Rsk (pRsk),MAPK pathway; [2],increased
same,proliferative rates (BRDU-uptake),[1],higher proliferative rates
same,AP-1 luciferase reporter activity higher than in 5.5 mM glucose,AP-1,approximately 40%
same,substrate oxidation to CO2,normal pancreas tissue,effectively oxidizes
